Measurements: patent US20020065236A1, “CpG reduced plasmids and viral vectors” (priority 1998, published 2002)

Legend:
[1] = test system: BALB/c mice; assay: Cytokine levels in BALF (ELISA) after intranasal instillation; conditions: for cytokine levels in BALF at higher concentrations of the compound: instilled with GL-67:pCFA-CAT; for inhibition of cytokine production in the lung: without affecting gene expression
Description: Cytokine levels in the mouse BALF were quantitated using enzyme-linked immunosorbent assay (ELISA) kits as specified by the manufacturers. IFN-γ, TNF-α, IL1-α, IL-1β, IL-10 and IL-6 ELISA kits were from Genzyme Corporation, mKC, MIP-2 and GM-CSF ELISA kits were from R&D Systems, and Leukotriene B4 ELISA kit was from Perseptive Diagnostics.
BALB/c mice were instilled intranasally with 100 μl of complex as described. […] The animals were euthanized and their lungs were lavaged 24 h post-instillation using phosphate-buffered saline (PBS). The recovered BALF were centrifuged at 1,500 rpm for 4 min, and the resulting supernatants were removed and frozen at −80° C. for subsequent cytokine analysis. The cell pellets were resuspended in PBS for microscopic determination of cell number and cell types.
Separate groups of mice were instilled with either (m)pDNA or unmethylated pDNA alone, or vehicle, and their bronchoalveolar lavage fluids collected for analysis at 24 h post-treatment.
The animals were euthanized and their lungs were lavaged 24 h post-instillation using phosphate-buffered saline (PBS). The recovered BALF were centrifuged at 1,500 rpm for 4 min., and the resulting supernatants were removed and frozen at −80° C. for subsequent cytokine analysis.
Cytokine levels were quantitated using enzyme-linked immunosorbent assay (ELISA) kits as specified by the manufacturer (Genzyme Corporation, Framingham, MA).

[2] = test system: BALB/c mice; assay: Lung histopathology after intranasal instillation; conditions: 2 days post-instillation, blinded
Description: The histopathological changes within BALB/c mouse lungs following administration of either cationic lipid alone, pDNA alone, or cationic lipid:pDNA complexes were also examined. […] Mice were sacrificed 2 days post-instillation and the lungs were processed for histological examination in a blinded manner.
Lungs were fixed by inflation at 30 cm of H2O pressure with 2% paraformaldehyde and 0.2% glutaraldehyde. Representative samples were taken from each lung lobe, embedded in glycol methacrylate, sectioned and stained with hematoxylin and eosin. Histopathology on the lung was evaluated in a blinded fashion and graded subjectively using a scale of 0 to 4, with a score of 0 indicating no abnormal findings and a score of 4 reflecting severe changes with intense infiltrates See Scheule et al., Hum.

[3] = test system: mouse spleen cells; assay: IL-12 induction from mouse spleen cells; assay type: cell-based; conditions: for levels of IL-12 induction by GL-67:pCFA-CAT: addition of 10 μM of chloroquine or 1 μM of quinacrine; for levels of IL-12 induction by pCFA-CAT: co-addition of 10 μM of chloroquine or 1 μM of quinacrine, 24 hours
Description: 6-8 week old 8ALB/c mice were sacrificed by cervical dislocation. Spleens were excised and placed in sterile PBS on ice. To prepare single cell suspensions, the spleens were placed in a tissue culture dish in PBS and crushed between the frosted edges of two sterile microscope slides. Cells were pelleted by centrifugation at 1200 rpm for 8 min., and washed 3 times in PBS. After the final wash, the cells were resuspended in RPMI medium supplemented with 25 mM HEPES buffer, 10% fetal bovine serum, 2 mM L-glutamine, and 50 μM 2-mercaptoethanol (2-ME). The resuspended cells were then plated at 6×10^6 cells/ml/well in 24-well culture plates. Supernatant were collected 24 hr after addition of oligonucleotides or plasmid DNA for the measurement of cytokine (IL-12) production.

[4] = test system: mouse spleen cells; conditions: 10 μM chloroquine or 1 μM quinacrine
Description: Another strategy to reduce the stimulatory properties of the pDNA vector is to use specific inhibitors of 1 he CpG signaling pathway. […] These compounds were tested for their ability to inhibit the stimulatory properties of pDNA and cationic lipid-pDNA complexes in vitro and in the mouse lung.

## CC(C)CCCC(C)C1CCC2C3CC=C4CC(OC(=O)N(CCCN)CCCCNCCCN)CCC4(C)C3CCC12C (stereo not shown) [GL-67]
[1]; 24 h after intranasal instillation of the component alone
  levels of TNF-α, IFN-γ, IL-6 and murine KC (these four cytokines) in the BALF: low levels
[1]; with the exception of KC
  contribution to the cytokine induction in the BALF: did not contribute significantly
[2]
  lung inflammation (histopathology, score on a scale from 0 to 4): scored slightly lower

## CCN(CC)CCCC(C)Nc1c2ccc(Cl)cc2nc2ccc(OC)cc12 (stereo not shown) [quinacrine]
[3]
  induction of IL-12 production from mouse spleen cells in vitro: greatly reduced
  levels of IL-12 induction by GL-67:pCFA-CAT: near background levels
  levels of IL-12 induction by pCFA-CAT: near background levels
[1]
  cytokine levels in BALF at higher concentrations of the compound: did not further decrease
  inhibition of cytokine production in the lung: 50%
[4]
  effects on cell viability: no discernible effects
  effects on expression of the CAT reporter gene: no discernible effects

## CCN(CC)CCCC(C)Nc1ccnc2cc(Cl)ccc12 (stereo not shown) [chloroquine]
[3]
  induction of IL-12 production from mouse spleen cells in vitro: greatly reduced
  levels of IL-12 induction by GL-67:pCFA-CAT: near background levels
  levels of IL-12 induction by pCFA-CAT: near background levels
[1]
  cytokine levels in BALF at higher concentrations of the compound: did not further decrease
  inhibition of cytokine production in the lung: 50%
[4]
  effects on expression of the CAT reporter gene: no discernible effects
